This assay concerns the target PIK3CA (human) (UniProt P42336). As to the kind of experiment: Inhibition of PIK3CA Kinase Activity.
Sequence of PIK3CA (human) (P42336 whole entry, looked up): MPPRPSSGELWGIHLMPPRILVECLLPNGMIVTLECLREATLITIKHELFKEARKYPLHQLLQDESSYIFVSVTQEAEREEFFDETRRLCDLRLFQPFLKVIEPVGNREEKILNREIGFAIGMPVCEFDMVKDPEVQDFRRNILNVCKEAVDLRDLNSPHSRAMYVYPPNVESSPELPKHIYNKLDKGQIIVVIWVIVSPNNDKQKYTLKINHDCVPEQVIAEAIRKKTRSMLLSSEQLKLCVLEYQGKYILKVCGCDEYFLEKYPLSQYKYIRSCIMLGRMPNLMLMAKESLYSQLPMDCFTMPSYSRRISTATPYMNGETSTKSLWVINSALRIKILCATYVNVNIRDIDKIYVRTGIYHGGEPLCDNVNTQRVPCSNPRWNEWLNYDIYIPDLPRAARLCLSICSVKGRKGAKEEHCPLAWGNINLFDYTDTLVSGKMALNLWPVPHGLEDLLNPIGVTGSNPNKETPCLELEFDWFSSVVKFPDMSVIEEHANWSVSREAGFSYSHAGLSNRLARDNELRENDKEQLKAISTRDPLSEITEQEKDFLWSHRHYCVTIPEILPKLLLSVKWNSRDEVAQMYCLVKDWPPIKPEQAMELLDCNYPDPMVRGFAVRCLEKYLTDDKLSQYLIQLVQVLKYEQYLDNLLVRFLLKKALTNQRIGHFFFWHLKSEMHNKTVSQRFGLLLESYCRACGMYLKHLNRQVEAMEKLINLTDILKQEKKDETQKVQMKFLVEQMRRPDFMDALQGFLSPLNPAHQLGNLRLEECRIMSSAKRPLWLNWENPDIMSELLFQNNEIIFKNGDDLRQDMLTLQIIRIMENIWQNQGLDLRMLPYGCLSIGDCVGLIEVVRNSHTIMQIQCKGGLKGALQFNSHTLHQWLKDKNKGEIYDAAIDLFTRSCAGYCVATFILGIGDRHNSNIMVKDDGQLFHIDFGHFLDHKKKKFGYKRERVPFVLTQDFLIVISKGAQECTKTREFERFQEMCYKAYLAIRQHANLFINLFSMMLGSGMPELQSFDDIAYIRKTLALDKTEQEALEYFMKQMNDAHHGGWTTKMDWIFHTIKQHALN
For the molecule `CCSc1nc2c(-c3cnc(N)cn3)nc(N3CCOCC3)nc2n1C(C)CC` (centres undefined), the IC50 (usually the concentration that gives 50% inhibition) fell in the range of 100 to 1000 nM.
Then `CCC(C)n1c(SC)nc2c(-c3cnc(N)nc3)nc(N3CCOCC3)nc21` (centres undefined), with 100 to 1000 nM; and `CC(C)n1c(-c2ccsc2)nc2c(-c3cnc(N)nc3)nc(N3CCOCC3)nc21`, with < 100 nM.
Then `CCC(C)n1c(N(C)C)nc2c(-c3cnc(N)nc3)nc(N3CCOCC3)nc21` (centres undefined), with < 100 nM.
In the case of `CC(C)n1c(-c2ccccc2)nc2c(-c3cnc(N)cn3)nc(N3CCOCC3)nc21`, the half-inhibitory concentration (IC50) fell in the range of 100 to 1000 nM.
For `CC(C)n1c(-c2ccccc2)nc2c(-c3cnc(N)nc3)nc(N3CCOCC3)nc21` the value was < 100 nM; for `CCSc1nc2c(-c3cnc(N)nc3)nc(N3CCOCC3)nc2n1C(C)C`, < 100 nM; for `CC(C)Nc1nc2c(-c3cnc(N)nc3)nc(N3CCOCC3)nc2n1C1CCCC1`, < 100 nM.
The molecule `CCC(C)n1c(Sc2ccccc2)nc2c(-c3cnc(N)nc3)nc(N3CCOCC3)nc21` (centres undefined) gave an IC50 of 100 to 1000 nM.
For `CC(C)Nc1nc2c(-c3cnc(N)nc3)nc(N3CCOCC3)nc2n1C1CCCCC1C` (centres undefined) the value was < 100 nM; for `CCC(C)n1c(NC(C)C)nc2c(-c3cnc(N)nc3)nc(N3CCOCC3)nc21` (centres undefined), < 100 nM.
Then `CN1CCN(c2nc3c(-c4cnc(N)nc4)nc(N4CCOCC4)nc3n2C2CCCC2)CC1`, with 100 to 1000 nM.
For `CC(C)Nc1nc2c(-c3cnc(N)nc3)nc(N3CCOCC3)nc2n1C(C)C` the value was < 100 nM; for `CC(C)n1c(OC2CCCC2)nc2c(-c3cnc(N)nc3)nc(N3CCOCC3)nc21`, 100 to 1000 nM; for `CCC(C)n1c(NC(C)C)nc2c(-c3cnc(N)cn3)nc(N3CCOCC3)nc21` (centres undefined), 100 to 1000 nM.
In the case of `CSc1nc2c(-c3cnc(N)nc3)nc(N3CCOCC3)nc2n1C(C)C`, the IC50 was < 100 nM.
For `CCC(C)n1c(N2CCCC2)nc2c(-c3cnc(N)nc3)nc(N3CCOCC3)nc21` (centres undefined) the value was 100 to 1000 nM; for `CC(=O)Nc1cccc(-c2nc3c(-c4cnc(N)nc4)nc(N4CCOCC4)nc3n2C(C)C)c1`, < 100 nM.
Regarding `CCC(C)n1c(NCCN(C)C)nc2c(-c3cnc(N)nc3)nc(N3CCOCC3)nc21` (centres undefined), the half-maximal inhibitory concentration (IC50) was in the range of 100 to 1000 nM.
Then `Nc1ncc(-c2nc(N3CCOCC3)nc3c2nc(NCC2CC2)n3C2CCCC2)cn1`, with < 100 nM.
Then `Nc1ncc(-c2nc(N3CCOCC3)nc3c2nc(-c2ccsc2)n3C2CCCC2)cn1`, with < 100 nM.
For `CCC(C)n1c(SC)nc2c(-c3cnc(N)cn3)nc(N3CCOCC3)nc21` (centres undefined) the value was 100 to 1000 nM; for `CCC(C)n1c(N2CCc3ccccc3C2)nc2c(-c3cnc(N)nc3)nc(N3CCOCC3)nc21` (centres undefined), 100 to 1000 nM; for `CCCCNc1nc2c(-c3cnc(N)nc3)nc(N3CCOCC3)nc2n1C1CCCC1`, < 100 nM.
`CCC(C)n1c(N2CCN(CC)CC2)nc2c(-c3cnc(N)nc3)nc(N3CCOCC3)nc21` (centres undefined) registered a 50% inhibitory concentration (IC50) of 100 to 1000 nM.
Then `CCC(C)n1c(NCCOC)nc2c(-c3cnc(N)nc3)nc(N3CCOCC3)nc21` (centres undefined), with < 100 nM; and `CC(C)n1c(-c2ccc3c(c2)OCO3)nc2c(-c3cnc(N)nc3)nc(N3CCOCC3)nc21`, with < 100 nM; and `CN(C)c1nc2c(-c3cnc(N)nc3)nc(N3CCOCC3)nc2n1C1CCCC1`, with < 100 nM.
For `CCC(C)n1c(N2CCCC2C)nc2c(-c3cnc(N)nc3)nc(N3CCOCC3)nc21` (centres undefined) the value was 100 to 1000 nM; for `CCC(C)n1c(-c2ccccc2)nc2c(-c3cnc(N)nc3)nc(N3CCOCC3)nc21` (centres undefined), 100 to 1000 nM.
`CCCCNc1nc2c(-c3cnc(N)nc3)nc(N3CCOCC3)nc2n1C(C)CC` (centres undefined): the IC50 was < 100 nM.
Regarding `CCC(C)n1c(-c2ccsc2)nc2c(-c3cnc(N)nc3)nc(N3CCOCC3)nc21` (centres undefined), the 50% inhibitory concentration (IC50) is < 100 nM.
Turning to `CC1CCCCC1n1c(N(C)C)nc2c(-c3cnc(N)nc3)nc(N3CCOCC3)nc21` (centres undefined), the half-maximal inhibitory concentration (IC50) was 100 to 1000 nM.
`CCOc1nc2c(-c3cnc(N)nc3)nc(N3CCOCC3)nc2n1C(C)CC` (centres undefined) displayed a 50% inhibitory concentration (IC50) of 100 to 1000 nM.

(Values after the Kinase Knowledgebase extract (Sharma et al. 2016).)
